# Experimental data taken from patent US12692274B2, “Tetrahydroisoquinoline derivatives for the treatment of red blood disorders and inflammatory diseases” (Sanofi, priority 2020, dated 2026).
# Where “and” joins values, the source holds several entries; their conditions need not be identical. Equal values may be shown once.
# What was measured:
# [1] = biological target: HIS-Keap1 full length / Biotin-Nrf2 (16-mer) (Homo sapiens, UniProt Q14145); test: biochemical
# [2] = test system: NQO1 activation in BEAS-2B cells; test: BEAS-2B cellular MTT assay of NQO1 activation, 0% HSA; type: cell-based
# Description: (§1) The growth rate of the BEAS-2B cells changed based on the lot of BEGM SingleQuots in the BEGM media. The cell growth rate was determined for each lot of SingleQuots. Ideally, cells were thawed into media with the new lot of SingleQuots and grown for two passages before testing; however, growing an active culture in the new lot of media for two to three passages before testing was also acceptable. Until the cell growth rate was determined, cells were seeded at different densities (cells/cm^2) in multiple tissue culture flasks in order to avoid the cells becoming more than 70% confluent. Cells should not go above 70% confluent as the cells differentiate when they become confluent. After the cells were grown in the new lot of media as described above, the number of cells per well needed to seed in the collagen plates was determined by seeding different numbers of cells per well and incubating for 48 hours. Cell confluency was checked after 48 hours and a cell number that results in just below to just above confluency was chosen for future plate seeding. Cell confluency in the assay plate was 95-100% confluent after 48 hours.
# (§2) Cell media consists of BEBM basal media with the BEGM SingleQuots added. SingleQuots vials were thawed in the tissue culture hood, and GA-1000 (Gentamicin-Amphotericin) was not added.
# (§3) If complete media was to be used immediately, BEBM basal media was warmed to room temperature in the hood, but not as high as 37° C. When the media was made for future use, SingleQuots were added to cold BEBM. One at a time, the SingleQuots components (except GA-1000) were added to the BEBM media. After removal of each component from the vial, the vial was rinsed with 0.5-1 mL of BEBM (depending on the volume the vial could hold) and added to the bottle of BEBM. Once all components were added, the label that comes with the SingleQuots kit was put on the bottle of media and the date was recorded. The bottle of media was mixed by gentle shaking. The media was not filtered. This media was stored at 4° C., with any leftover media disposed of one month after the date the SingleQuots were added.
# (§4) BEAS-2B Cell Splitting Protocol:
# (§5) First, Trypsin was warmed to 37° C. in the water bath. The media was then warmed to room temperature by letting it sit in the tissue culture hood, but not as high as 37° C. The media was aspirated from flask(s) and the flask(s) were washed with PBS. From 1 to 1.5 mL of warm trypsin were added to each flask and incubated at 37° C. until cells came off the flask on their own (~8-10 minutes), with no vigorous tapping on the flask to detach the cells.
# (§6) Media was added to each flask to a total volume of 8-10 mL per flask and transferred to 15 mL conical tube(s). The cells were spun down at 120 g for 5 minutes, level 5 brake. The cells can be spun down between 100 and 150 g. Next the media was aspirated and the cell pellet was resuspended in fresh media by pipetting up and down and flicking the tube side to side. Any clumps of cells that remained were allowed to settle to the bottom of the tube before the top suspension was transferred into another tube, leaving about 1 mL of media in the original tube. The 1 mL of media and cell clumps were mixed with a single channel p1000 pipette, and any remaining clumps were removed before adding the cells in suspension to the other tube. The suspension was mixed with a pipette, an aliquot was removed, and the cells were counted. The amount of cells/cm^2 desired was calculated and the required volume of cells was added to tissue culture flasks. For example, use of SingleQuots with ~6000 cells/cm^2 was appropriate for a three day incubation and ~3000 cells/cm^2 for a five day incubation. Optimal cell density differed depending on lot of SingleQuots. The flasks were incubated at 37° C. in 5% CO2.
# (§7) Day One: Seeding BEAS-2B Cells in Collagen Plates:
# (§8) Plate(s) were either seeded with 0.3% or 0% HSA. While the protocol was similar for both conditions any differences are noted herein below. […]
# [3] = test system: NQO1 activation in BEAS-2B cells; test: BEAS-2B cellular MTT assay of NQO1 activation, 0.3% HSA; type: cell-based
# Description: as §1, §2, §3, §4, §5, §6, §7, §8
# [4] = Homo sapiens, Serum Free W, read-out: BEAS EC50 (nM) Serum Free W
# [5] = Serum Free W, read-out: BEAS EC50 (nM) Serum Free W
# [6] = BEAS+ W, read-out: BEAS+ W EC50
# [7] = Homo sapiens, BEAS+ W, read-out: BEAS+ W EC50
# HIS-Keap1 full length / Biotin-Nrf2 (16-mer), sequence (Q14145 whole entry): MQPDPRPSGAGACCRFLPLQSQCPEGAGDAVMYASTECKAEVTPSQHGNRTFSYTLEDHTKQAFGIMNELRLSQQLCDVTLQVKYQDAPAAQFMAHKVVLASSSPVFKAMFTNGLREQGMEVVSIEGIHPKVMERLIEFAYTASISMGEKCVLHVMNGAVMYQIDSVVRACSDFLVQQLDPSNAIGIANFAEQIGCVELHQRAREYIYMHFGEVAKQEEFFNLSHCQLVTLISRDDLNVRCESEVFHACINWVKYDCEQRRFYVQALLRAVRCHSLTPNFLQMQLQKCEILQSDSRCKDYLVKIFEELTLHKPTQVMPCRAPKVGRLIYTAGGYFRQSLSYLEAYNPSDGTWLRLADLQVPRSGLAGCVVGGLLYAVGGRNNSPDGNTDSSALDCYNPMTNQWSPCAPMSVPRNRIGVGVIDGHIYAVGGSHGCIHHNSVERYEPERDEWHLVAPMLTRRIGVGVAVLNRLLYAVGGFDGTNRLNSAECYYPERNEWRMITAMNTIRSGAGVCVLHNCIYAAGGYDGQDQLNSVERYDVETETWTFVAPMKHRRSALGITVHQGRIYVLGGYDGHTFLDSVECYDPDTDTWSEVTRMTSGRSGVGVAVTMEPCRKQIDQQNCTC
SMILES,IC50 [1],"EC50 ([2]; serum free, read-out: BEAS EC50 (nM) serum free)","EC50 ([3]; BEAS+, read-out: BEAS+ EC50)","EC50 [2, 4]","EC50 [2, 5]","EC50 [3, 6]","EC50 [3, 7]"
"O=C(O)CC1c2ccc3c(c2)CN(CC3)C(=O)c2ccc(cc2)OCC=CCn2nnc3cc1ccc32 (mixture of isomers) [Compound 419, 2-[(12E)-20-oxo-15-oxa-8,9,10,21-tetrazahexacyclo[19.5.3.216,19.13,7.06,10.024,28]dotriaconta-1(27),3,5,7(32),8,12,16(31),17,19(30),24(28),25-undecaen-2-yl]acetic Acid]",5.7 nM and 19.1 nM and 16.8 nM and 10.8 nM,–,–,–,–,–,–
Cc1c2ccc3c1nnn3CCCCCCc1ccc(cc1)C(=O)N1CCc3ccc(cc3C1)[C@@H]2[C@@H](C)C(=O)O (racemic) [Compound 201],–,0.3 nM and 0.1 nM,0.5 nM and 0.2 nM,–,–,–,–
Cc1c2ccc3c1nnn3CCCCCc1ccc(c3c1ccn3C)C(=O)N1CCc3ccc(cc3C1)[C@@H]2CC(=O)O [Compound 26],0.4 nM and 0.3 nM,–,–,–,–,–,–
Cc1c2ccc3c1nnn3CCCCCCc1ccc(c3c1ccn3C)C(=O)N1CCc3ccc(cc3C1)[C@@H]2CC(=O)O [Compound 27],0.4 nM and 0.3 nM,–,–,–,–,–,–
Cc1cc2ncc1[C@H](C(C)(C)C(=O)O)c1ccc3c(c1)CN(CC3)C(=O)c1ccc(cc1)CCCCCO2 [Compound 53],–,–,–,8.7 nM,12.3 nM,47.8 nM,38.5 nM
Cc1cc2ncc1[C@@H](C(C)(C)C(=O)O)c1ccc3c(c1)CN(CC3)C(=O)c1ccc(cc1)CCCCCO2 [Compound 54],–,–,–,0.2 nM,0.1 nM,–,–
C[C@@H](C(=O)O)[C@H]1c2ccc(nc2)OCCCCCc2ccc(cc2)C(=O)N2CCc3ccc1cc3C2 [Compound 57],–,–,–,–,0.3 nM,0.6 nM,–
Cc1cc2cnc1OCCCCCc1ccc(cc1)C(=O)N1CCc3ccc(cc3C1)[C@@H]2[C@H](C)C(=O)O [Compound 71],–,–,–,3.4 nM,3.3 nM,13.2 nM,10.5 nM
Cc1cc2cnc1OCCCCCc1ccc(cc1)C(=O)N1CCc3ccc(cc3C1)[C@@H]2[C@@H](C)C(=O)O [Compound 72],–,–,–,> 1000 nM,1930 nM,7720 nM,9870 nM
COc1cc2ncc1[C@@H](CC(=O)O)c1ccc3c(c1)CN(CC3)C(=O)c1ccc(cc1)CCCCCO2 [Compound 73],–,–,–,287 nM,373 nM,590 nM,464 nM
COc1cc2ncc1[C@H](CC(=O)O)c1ccc3c(c1)CN(CC3)C(=O)c1ccc(cc1)CCCCCO2 [Compound 79],–,–,–,733 nM,810 nM,2040 nM,1720 nM
Cc1cc2ncc1[C@@H]([C@@H](C)C(=O)O)c1ccc3c(c1)CN(CC3)C(=O)c1ccc(cc1)CCCCCO2 [Compound 82],–,–,–,594 nM,641 nM,1760 nM,1960 nM
Cc1cc2ncc1[C@@H]([C@H](C)C(=O)O)c1ccc3c(c1)CN(CC3)C(=O)c1ccc(cc1)CCCCCO2 [Compound 84],–,–,–,7.4 nM,6.2 nM,30 nM,26.3 nM
COc1cc2ccc1C(=O)N1CCc3ccc(cc3C1)[C@H](CC(=O)O)c1ccc3c(nnn3CCCCCC2)c1C [Compound 108],–,–,–,7.2 nM,7.9 nM,–,–
COc1cc2ccc1C(=O)N1CCc3ccc(cc3C1)[C@@H](CC(=O)O)c1ccc3c(nnn3CCCCCC2)c1C [Compound 109],–,–,–,32.1 nM,38 nM,100 nM,172 nM
Cc1c2ccc3c1nnn3CCCCCc1ccc(cc1)C(=O)N1CCc3ccc(cc3C1)[C@@H]2[C@H](C)C(=O)O [Compound 116],–,–,–,130 nM,84.8 nM,252 nM,212 nM
Cc1c2ccc3c1nnn3CCCCCCc1ccc(cc1)C(=O)N1CCc3ccc(cc3C1)[C@@H]2[C@@H](C)C(=O)O [Compound 132],–,–,–,> 1000 nM,–,–,> 10000 nM
